# According to PMC11494503, “Next Generation SICLOPPS Screening for the Identification of Inhibitors of the HIF-1α/HIF-1β Protein–Protein Interaction” (ACS Chemical Biology, 2024):
# Peptide text beside a SMILES is read from it.
# What was measured:
# PAS-B domain of HIF-1α = target: T1, PAS-B domain of HIF-1α (Homo sapiens, UniProt Q16665); assay: Microscale thermophoresis (MST) binding to HIF-1α PAS-B domain; conditions: MST, HIF-1α PAS-B, mean (n = 3) ± SEM; read-out: KD
# T1 construct: The HIF-1a PAS-B domain was expressed and purified as previously described; made in house
# Procedure: We synthesized the top 20 cyclic peptides from the ranking approach. We also synthesized cyclo-CLLFVY as a control.[14] These compounds were assessed for binding to the PAS-B domain of HIF-1α by microscale thermophoresis (MST). […]
# HIF-1α/HIF-1β PPI = assay: SICLOPPS CX5 library screen in HIF-1 RTHS with biopanning and NGS; type: cell-based, E. coli; conditions: after 2 rounds of biopanning
# Excerpt: The HIF-1 RTHS links the PPI between HIF-1α-P22 and HIF-1β-434 fusion proteins to the life/death of the host E. coli via three reporter genes.[14] Interaction of HIF-1α and HIF-1β results in the formation of a chimeric P22/434 repressor that inhibits the transcription of the KanR and His3 reporter genes, which are required for cell survival in selection media (Figure S1). Disruption of the HIF-1α/HIF-1β PPI also disrupts the repressor complex, leading to transcription of the reporter genes and survival of colonies that contain cyclic peptide HIF-1 inhibitors. Thus, cells containing cyclic peptide inhibitors of the targeted PPI will survive and grow on selective media, whereas all others will not. The HIF-1 RTHS cells were transformed with the sequenced CX5 library and, after recovery, plated onto a selective medium. After incubation for 48 h at 37 °C, selection plates were scraped to collect all colonies, and the SICLOPPS plasmids were isolated. The extein coding region of these plasmids was subsequently sequenced by NGS. We observed sequence enrichment after one round of biopanning, with the three sequences (CAAAAA, CRLYVL, and CVTYVL) making up 7.8% of the entire library with over 10 000 copies each per 1 M reads (Figure 2a). The prevalence of the control sequence was reduced by 44% from 80 000 to 45 000 copies per million reads, which further indicated enrichment of cyclic peptide inhibitors of the HIF-1α/HIF-1β PPI in the RTHS. The next 47 sequences were present with over 1000 copies after round 1 which made up a further 15% of the library (Figure 2a). HIF-1 RTHS cells were transformed with the SICLOPPS plasmid library isolated from round 1 of biopanning, for a second round of selection. After incubation, all colonies were scraped, and plasmids were isolated and sequenced by NGS as before. We observed further sequence enrichment after the second round of biopanning, evident by the shift of the library population from the mostly low-prevalence sequences in both the naïve library and after one round of biopanning to mostly highly prevalent cyclic peptide sequences after round 2 of biopanning (Figure 2b). With 159 000 copies per 1 M reads, the most prevalent sequence is CRTYIL, while the next 14 sequences were all present with more than 10 000 copies per 1 M. The top 15 sequences make up over 50% of the entire library. The CA5 internal standard dropped to 0.5%, providing further evidence of enrichment of active inhibitors during biopanning.
# All reagents were purchased from Fisher Scientific or Sigma Aldrich UK unless specified otherwise.
# Restriction enzymes and microbiology reagents were purchased from New England Biolabs Inc., FisherScientific (UK) or Promega (UK) and were used as directed by the manufacturer. Primers and oligonucleotides were synthesised by Integrated DNA Technologies (UK). DNA sequencing was carried out by Eurofins MWG Operon (Germany).
# Construction of the RTHS and SICLOPPS library was conducted as previously described.2 […]
# Electrocompetent RTHS-HIF 1 cells2 were transformed with 100 ng freshly prepared SICLOPPS CX5 library, prepared as previously detailed.3 The recovery mixture was plated on 6 square plates containing M9 minimal media supplemented with 50 µg/mL ampicillin, 25 µg/mL Spectinomycin, 50 µg/mL kanamycin, 35 µg/mL chloramphenicol, 100 µM IPTG, 6.5 µM L-arabinose and 7.5 mM 3-amino triazole and incubate at 37 °C for 48 h. To ensure sufficie transformation efficiency, 10 µL transformation mixture was subjected to 10-fold serial dilutions plated on LB-agar with 35 µg/m […]
# Chloramphenicol. […] All cells were […]
# then harvested by resuspending the colonies in a total of 50 mL LB medium and transferring to a centrifuge tube and centrifugation for 30 min at 4000 rpm and 4°C. The cell pellet was then subjected to maxi prep (GeneJET Plasmid Maxiprep kit Thermo Scientific) and the resulting plasmid library was used for the next round of biopanning and NGS. The second round of bio panning was […]
# HIF-1 = assay: HIF-1-dependent luciferase reporter assay in U2OS-HRE-Luc cells in hypoxia; type: cell-based, human; conditions: 40 μM, 16 h in hypoxia
# Procedure: HIF Luciferase Reporter Assays
# Assays were conducted in previously reported U2OS-HRE-Luciferase (U2OS-HRE-Luc) cells.2 Upon reaching 80-90% confluency, U2OS-HRE-Luc were plated (10 000 cells/well) in 96-well plates (Perkin-Elmer) and incubated in a cell incubator for 16 h. The cells were treated with cyclic peptide at […]
# manufacturer’s protocol. […] The
# T1 sequence (Q16665 228-298 limits assumed): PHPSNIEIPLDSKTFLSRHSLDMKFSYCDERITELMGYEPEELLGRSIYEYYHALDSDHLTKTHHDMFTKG
Compound,Kd (PAS-B domain of HIF-1α) [µM],Enrichment after pan 2 [%] (HIF-1α/HIF-1β PPI),reduction in luminescence (HIF-1) [%]
"CC(C)C[C@@H]1NC(=O)[C@H](C(C)C)NC(=O)[C@H](CC(C)C)NC(=O)[C@H](C(C)C)NC(=O)[C@H](CCCNC(=N)N)NC(=O)[C@H](CS)NC1=O [CRVLVL, cyclo-CRVLVL] (cyclo(CRVLVL))",201 ± 16,0.8272,–
CC(C)C[C@@H]1NC(=O)[C@H](CC(C)C)NC(=O)[C@H](Cc2ccccc2)NC(=O)[C@H](C(C)C)NC(=O)[C@H](CCCNC(=N)N)NC(=O)[C@H](CS)NC1=O [CRVFLL] (cyclo(CRVFLL)),–,0.6625,–
"CC[C@H](C)[C@@H]1NC(=O)[C@H](CC(C)C)NC(=O)[C@H](Cc2ccc(O)cc2)NC(=O)[C@H](CCCNC(=N)N)NC(=O)[C@H](CS)NC(=O)[C@H](CC(C)C)NC1=O [CRYLIL, cyclo-CRYLIL] (cyclo(CRYLIL))",20 ± 2,0.6083,–
"CC[C@H](C)[C@@H]1NC(=O)[C@H](CC(C)C)NC(=O)[C@H](CCCNC(=N)N)NC(=O)[C@H](CS)NC(=O)[C@H](C(C)C)NC(=O)[C@H]([C@@H](C)CC)NC1=O [CRLIIV, cyclo-CRLIIV] (cyclo(CRLIIV))",28 ± 2,1.138,–
Tat-cyclo-CLLFVY [reference compound],–,–,28
"CC[C@H](C)[C@@H]1NC(=O)[C@H](Cc2ccc(O)cc2)NC(=O)[C@H]([C@@H](C)O)NC(=O)[C@H](CCCNC(=N)N)NC(=O)[C@H](CS)NC(=O)[C@H](CC(C)C)NC1=O [CRTYIL, cyclo-CRTYIL] (cyclo(CRTYIL))",24 ± 1,15.78,–
"CC(C)C[C@@H]1NC(=O)[C@H](CC(C)C)NC(=O)[C@H](Cc2ccccc2)NC(=O)[C@H](C(C)C)NC(=O)[C@H](CCCCN)NC(=O)[C@H](CS)NC1=O [CKVFLL, cyclo-CKVFLL] (cyclo(CKVFLL))",42 ± 12,3.064,–
"CC[C@H](C)[C@@H]1NC(=O)[C@H](Cc2ccccc2)NC(=O)[C@H]([C@@H](C)CC)NC(=O)[C@H](CCCNC(=N)N)NC(=O)[C@H](CS)NC(=O)[C@H](CCSC)NC1=O [CRIFIM, cyclo-CRIFIM] (cyclo(CRIFIM))",26 ± 1,1.319,–
"CC[C@H](C)[C@@H]1NC(=O)[C@H](CCCNC(=N)N)NC(=O)[C@H](CCSC)NC(=O)[C@H](C(C)C)NC(=O)[C@H](CS)NC(=O)[C@H](C)NC1=O [CVMRIA, cyclo-CVMRIA] (cyclo(ACVMRI))",168 ± 40,0.6968,–
"CC(C)C[C@@H]1NC(=O)[C@H](Cc2c[nH]c3ccccc23)NC(=O)[C@H](C(C)C)NC(=O)[C@H](CO)NC(=O)[C@H](CS)NC(=O)[C@H](Cc2ccc(O)cc2)NC1=O [CSVWLY, cyclo-CSVWLY] (cyclo(CSVWLY))",103 ± 28,2.022,–
CC(C)C[C@@H]1NC(=O)[C@H](CCCCN)NC(=O)[C@H](CS)NC(=O)[C@H](CC(C)C)NC(=O)[C@H](CC(C)C)NC(=O)[C@H](Cc2ccccc2)NC1=O [CKLFLL] (cyclo(CKLFLL)),–,0.6884,–
"CC(C)C[C@@H]1NC(=O)[C@H](CC(N)=O)NC(=O)[C@H](CC(C)C)NC(=O)[C@H](CC(C)C)NC(=O)[C@H](Cc2ccccc2)NC(=O)[C@H](CS)NC1=O [CFLLNL, cyclo-CFLLNL] (cyclo(CFLLNL))",103 ± 8,1.509,–
